What all share (format): functional
One assay relates to Bacillus cereus. The assay is described as follows: Antibacterial activity against Bacillus cereus ATCC 14579 after 16 hrs by CLSI-based broth microdilution method. The conditions noted are these: ATCC 14579, 16 h.
The test system of assay [1] is Staphylococcus aureus. As to the kind of experiment: Antibacterial activity against Staphylococcus aureus ATCC 25923 after 16 hrs by CLSI-based broth microdilution method. The conditions noted are these: ATCC 25923, 16 h. For orientation: Broth dilution looks for growth in wells or tubes with falling amounts of substance.
For assay [2], the system named is Staphylococcus aureus. As to the kind of experiment: Antibacterial activity against methicillin-resistant Staphylococcus aureus ATCC 33591 after 16 hrs by CLSI-based broth microdilution method. Particulars: ATCC 33591, 16 h.

Structures are written as SMILES. Converted amounts (≈) assume the structure as drawn.

As a reminder, the MIC is the lowest concentration found to suppress growth. A high value points to a less susceptible organism. On to `CCC/C=C/CCCCc1cccc(O)c1`, for which the MIC in the assay on Bacillus cereus, in the assay with Staphylococcus aureus [1] and in the assay on Staphylococcus aureus [2] was 16 µg/mL (≈ 73.3 µM) throughout.
For `C#CCCC/C=C/CCCCc1cccc(O)c1`, the MIC against Bacillus cereus, against Staphylococcus aureus [1] and in the assay with Staphylococcus aureus [2] was 8 µg/mL (≈ 33 µM) in each case.
Take `CC(=O)NC[C@H]1CN(c2ccc(N3CCOCC3)c(F)c2)C(=O)O1` [LINEZOLID]: the minimum inhibitory concentration (MIC) amounted to 1 µg/mL (≈ 2.96 µM) in the assay on Bacillus cereus, 0.5 µg/mL (≈ 1.48 µM) with Staphylococcus aureus [1] and 1 µg/mL (≈ 2.96 µM) against Staphylococcus aureus [2].
